# Values quoted from earlier work as cited in patent US9445622B2, “Compositions and methods for improving creatine solubility and stability” (Glanbia Nutritionals (Ireland) Ltd., priority 2009, dated 2016).
# Conditions: solid form, over years, even at elevated temperatures
compound,measurement,value
"CN(CC(=O)O)C(=N)N.O [creatine monohydrate powder, creatine monohydrate]",stability of solid powder,no signs of degradation
